Type in all cases: functional
The test system of one assay is Bacillus pumilus. Nature of the assay: Antibacterial activity against Bacillus pumilus assessed as growth inhibition after 24 hr by NCCLS broth microdilution method. In general terms: Dilution methods test growth across graded concentrations, often in twofold steps.
For the next assay, the system named is Candida tropicalis. Briefly: Antifungal activity against Candida tropicalis assessed as growth inhibition after 24 hr by NCCLS broth microdilution method.
A further assay deals with Candida albicans. Briefly: Antifungal activity against Candida albicans assessed as growth inhibition after 24 hr by NCCLS broth microdilution method.
A further assay concerns Escherichia coli. Nature of the assay: Antibacterial activity against Escherichia coli assessed as growth inhibition after 24 hr by NCCLS broth microdilution method.
Another assay deals with Aspergillus niger. Briefly: Antifungal activity against Aspergillus niger assessed as growth inhibition after 24 hr by NCCLS broth microdilution method.
The subject of the next assay is Staphylococcus aureus. Nature of the assay: Antibacterial activity against Staphylococcus aureus assessed as growth inhibition after 24 hr by NCCLS broth microdilution method.
In another assay the test system is Bacillus subtilis. Nature of the assay: Antibacterial activity against Bacillus subtilis assessed as growth inhibition after 24 hr by NCCLS broth microdilution method.
For a further assay, the system named is Aspergillus flavus. Nature of the assay: Antifungal activity against Aspergillus flavus assessed as growth inhibition after 24 hr by NCCLS broth microdilution method.
The next assay deals with Pseudomonas aeruginosa. Nature of the assay: Antibacterial activity against Pseudomonas aeruginosa assessed as growth inhibition after 24 hr by NCCLS broth microdilution method.

≈ marks a conversion by molar mass, not a printed value.

With `COc1ccc(-c2nn(-c3ccccc3)cc2C2CC(c3ccccc3)=NN2C(=O)c2ccncc2)cc1` (racemic), the MIC in the assay with Bacillus pumilus stood at 6.25 mg/L (≈ 12.5 µM); with Candida tropicalis, 12.5 mg/L (≈ 25 µM); with Candida albicans, 12.5 mg/L (≈ 25 µM); in the assay on Escherichia coli it was 6.25 mg/L (≈ 12.5 µM); in the assay with Aspergillus niger, 50 mg/L (≈ 100 µM); in the assay on Staphylococcus aureus, 6.25 mg/L (≈ 12.5 µM). Besides, the MIC in the assay on Bacillus subtilis came out at 6.25 mg/L (≈ 12.5 µM); with Aspergillus flavus, 50 mg/L (≈ 100 µM); in the assay with Pseudomonas aeruginosa it was 12.5 mg/L (≈ 25 µM).
With `COc1ccccc1-c1nn(-c2ccccc2)cc1C1CC(c2ccccc2)=NN1C(=O)c1ccncc1` (racemic), the MIC in the assay on Bacillus pumilus came to 6.25 mg/L (≈ 12.5 µM); in the assay on Candida tropicalis, 6.25 mg/L (≈ 12.5 µM); in the assay with Candida albicans, 6.25 mg/L (≈ 12.5 µM); in the assay with Escherichia coli it was 6.25 mg/L (≈ 12.5 µM); in the assay with Aspergillus niger, 50 mg/L (≈ 100 µM); in the assay on Staphylococcus aureus, 6.25 mg/L (≈ 12.5 µM). For the same compound, the results for the MIC in the assay on Bacillus subtilis, with Aspergillus flavus and in the assay on Pseudomonas aeruginosa were 6.25 mg/L (≈ 12.5 µM), 50 mg/L (≈ 100 µM) and 6.25 mg/L (≈ 12.5 µM), respectively.
Regarding `Cc1ccc(-c2nn(-c3ccccc3)cc2C2CC(c3ccccc3)=NN2C(=O)c2ccncc2)cc1` (racemic), the MIC is 12.5 mg/L (≈ 25.8 µM) in the assay on Bacillus pumilus; 50 mg/L (≈ 103 µM) in the assay with Candida tropicalis; 25 mg/L (≈ 51.7 µM) in the assay on Candida albicans; 12.5 mg/L (≈ 25.8 µM) in the assay with Escherichia coli; 100 mg/L (≈ 207 µM) with Aspergillus niger; 6.25 mg/L (≈ 12.9 µM) in the assay on Staphylococcus aureus. Also, the MIC in the assay on Bacillus subtilis came to 12.5 mg/L (≈ 25.8 µM); in the assay on Aspergillus flavus, 100 mg/L (≈ 207 µM); in the assay with Pseudomonas aeruginosa, 25 mg/L (≈ 51.7 µM).
Turning to `O=C(c1ccncc1)N1N=C(c2ccccc2)CC1c1cn(-c2ccccc2)nc1-c1ccc(F)cc1` (racemic), the MIC with Bacillus pumilus is 25 mg/L (≈ 51.3 µM); in the assay on Candida tropicalis, 50 mg/L (≈ 103 µM); with Candida albicans, 50 mg/L (≈ 103 µM); in the assay with Escherichia coli it was 12.5 mg/L (≈ 25.6 µM); with Aspergillus niger it was 200 mg/L (≈ 410 µM); in the assay on Staphylococcus aureus it was 6.25 mg/L (≈ 12.8 µM). The minimum inhibitory concentration (MIC) in the assay with Bacillus subtilis was 12.5 mg/L (≈ 25.6 µM); with Aspergillus flavus, 200 mg/L (≈ 410 µM); with Pseudomonas aeruginosa, 12.5 mg/L (≈ 25.6 µM).
`O=C(c1ccncc1)N1N=C(c2ccccc2)CC1c1cn(-c2ccccc2)nc1-c1ccc(Cl)cc1` (racemic): the MIC in the assay on Bacillus pumilus is 25 mg/L (≈ 49.6 µM); in the assay with Candida tropicalis, 100 mg/L (≈ 198 µM); in the assay on Candida albicans, 100 mg/L (≈ 198 µM); with Escherichia coli, 25 mg/L (≈ 49.6 µM); in the assay with Aspergillus niger it was greater than 200 mg/L; with Staphylococcus aureus, 12.5 mg/L (≈ 24.8 µM). The MIC in the assay with Bacillus subtilis worked out at 25 mg/L (≈ 49.6 µM); in the assay on Aspergillus flavus it was 200 mg/L (≈ 397 µM); in the assay with Pseudomonas aeruginosa, 25 mg/L (≈ 49.6 µM).
On to `O=C(c1ccncc1)N1N=C(c2ccccc2)CC1c1cn(-c2ccccc2)nc1-c1ccc(Br)cc1` (racemic), for which the MIC was 25 mg/L (≈ 45.6 µM) in the assay on Bacillus pumilus; 100 mg/L (≈ 182 µM) in the assay with Candida tropicalis; 50 mg/L (≈ 91.2 µM) in the assay with Candida albicans; 50 mg/L (≈ 91.2 µM) in the assay with Escherichia coli; greater than 200 mg/L in the assay with Aspergillus niger; 12.5 mg/L (≈ 22.8 µM) with Staphylococcus aureus. In addition, the MIC in the assay on Bacillus subtilis came out at 25 mg/L (≈ 45.6 µM); in the assay on Aspergillus flavus, 200 mg/L (≈ 365 µM); in the assay with Pseudomonas aeruginosa, 50 mg/L (≈ 91.2 µM).
Turning to `O=C(c1ccncc1)N1N=C(c2ccccc2)CC1c1cn(-c2ccccc2)nc1-c1ccccc1` (racemic), the MIC was determined as 50 mg/L (≈ 106 µM) in the assay on Bacillus pumilus; 200 mg/L (≈ 426 µM) in the assay on Candida tropicalis; 200 mg/L (≈ 426 µM) in the assay on Candida albicans; 50 mg/L (≈ 106 µM) in the assay on Escherichia coli; 100 mg/L (≈ 213 µM) with Aspergillus niger; 25 mg/L (≈ 53.2 µM) in the assay on Staphylococcus aureus. The MIC with Bacillus subtilis was 50 mg/L (≈ 106 µM); with Aspergillus flavus, greater than 200 mg/L; in the assay on Pseudomonas aeruginosa, 50 mg/L (≈ 106 µM).
`O=C(O)c1cn(C2CC2)c2cc(N3CCNCC3)c(F)cc2c1=O` [CIPROFLOXACIN]: the MIC in the assay on Bacillus pumilus, with Escherichia coli, with Staphylococcus aureus, in the assay on Bacillus subtilis and in the assay on Pseudomonas aeruginosa was 3.12 mg/L (≈ 9.43 µM) in each case.
Consider `OC(Cn1cncn1)(Cn1cncn1)c1ccc(F)cc1F` [FLUCONAZOLE], for which the MIC came to 6.25 mg/L (≈ 20.4 µM) with Candida tropicalis, 3.12 mg/L (≈ 10.2 µM) with Candida albicans, 12.5 mg/L (≈ 40.8 µM) in the assay with Aspergillus niger and 12.5 mg/L (≈ 40.8 µM) with Aspergillus flavus.

By MIC is commonly meant the least concentration at which growth counts as inhibited.

The record behind these values is ChEMBL document CHEMBL3045725, “Synthesis and antimicrobial activity of some (3-phenyl-5-(1-phenyl-3-aryl-1H-pyrazol-4-yl)-4,5-dihydro-1H-pyrazol-1-yl)(pyridin-4-yl)methanones: new derivatives of 1,3,5-trisubstituted pyrazolines” (2013).
